# According to US20250025443A1, “COMPOUNDS AND METHODS FOR TREATING CORONA VIRUSES” (CLEAR CREEK BIO, INC., priority 2021, published 2025):
# Molecular target: SARS-CoV-2 Papain-Like Protease (PLpro) (Severe acute respiratory syndrome coronavirus 2 (2019-nCoV) (SARS-CoV-2), UniProt P0DTD1)
# Test: biochemical
# Conditions: PLpro enzymatic fluorescence assay; class symbols; read-out: PLpro IC50
row,SMILES,IC50 [µM]
1,"Cc1ccc(OC[C@@H]2CCN2)cc1C(=O)NC1(c2cc(/C=C/C3CC3)cc3ncccc23)CC1 [Compound 667, (S,E)-5-(Azetidin-2-ylmethoxy)-N-(1-(7-(2-cyclopropylvinyl)quinolin-5-yl)cyclopropyl)-2-methylbenzamide]",< 0.1
2,"Cc1nnc(-c2cc(C3(NC(=O)c4cc(OC[C@@H]5CCN5C)ccc4C)CC3)c3cccnc3c2)o1 [Compound 693, (S)-2-Methyl-N-(1-(7-(5-methyl-1,3,4-oxadiazol-2-yl)quinolin-5-yl)cyclopropyl)-5-((1-methylazetidin-2-yl)methoxy)benzamide]",< 0.1
3,"CC(C)=Cc1cc(C2(NC(=O)c3cc(OC[C@@H]4CCN4C)ccc3C)CC2)c2cccnc2c1 [Compound 603, (S)-2-Methyl-5-((1-methylazetidin-2-yl)methoxy)-N-(1-(7-(2-methylprop-1-en-1-yl)quinolin-5-yl)cyclopropyl)benzamide]",< 0.1
4,"Cc1ccc(OC[C@@H]2CCN2C)cc1C(=O)NC1(c2cc(-c3ccc(CN4CCC(F)(F)C4)s3)cc3ncccc23)CC1 [Compound 805, (S)—N-(1-(7-(5-((3,3-Difluoropyrrolidin-1-yl)methyl)thiophen-2-yl)quinolin-5-yl)cyclopropyl)-2-methyl-5-((1-methylazetidin-2-yl)methoxy)benzamide]",< 0.1
5,"COc1cc(C2(NC(=O)c3cc(OC[C@H](C)N)ccc3C)CC2)c2ccncc2c1 [Compound 536, (S)-5-(2-Aminopropoxy)-N-(1-(7-methoxyisoquinolin-5-yl)cyclopropyl)-2-methylbenzamide]",< 0.1
6,"Cc1ccc(OC[C@@H]2CCN2C)cc1C(=O)NC1(c2cc(-c3ccccc3)cc3ncccc23)CC1 [Compound 594, (S)-2-Methyl-5-((1-methylazetidin-2-yl)methoxy)-N-(1-(7-phenylquinolin-5-yl)cyclopropyl)benzamide]",< 0.1
7,"Cc1ccc(NC2CN(C(=O)OC(C)(C)C)C2)cc1C(=O)NC1(c2cccc(-c3ccccc3)c2)CC1 [Compound 188, tert-Butyl 3-((3-((1-([1,1′-biphenyl]-3-yl)cyclopropyl)carbamoyl)-4-methylphenyl)amino)azetidine-1-carboxylate]",> 5
8,"COc1cc(C2(NC(=O)c3cc(OC[C@@H]4CCCCN4C)ccc3C)CC2)c2cccnc2c1 [Compound 553, (S)-N-(1-(7-Methoxyquinolin-5-yl)cyclopropyl)-2-methyl-5-((1-methylpiperidin-2-yl)methoxy)benzamide]",< 0.1
9,"C=Cc1cc(C2(NC(=O)c3cc(OC[C@@H]4CCN4C)c(NS(C)(=O)=O)cc3C)CC2)c2cccnc2c1 [Compound 760, (S)-2-Methyl-5-((1-methylazetidin-2-yl)methoxy)-4-(methylsulfonamido)-N-(1-(7-vinylquinolin-5-yl)cyclopropyl)benzamide]",< 0.1
10,"Cc1ccc(OC[C@@H]2CCN2C)cc1C(=O)NC1(c2cc(-c3ncccn3)cc3ncccc23)CC1 [Compound 681, (S)-2-Methyl-5-((1-methylazetidin-2-yl)methoxy)-N-(1-(7-(pyrimidin-2-yl)quinolin-5-yl)cyclopropyl)benzamide]",< 0.1
11,"C=Cc1cc(C2(NC(=O)c3cc(OC[C@H](C)NC)ccc3C)CC2)c2cccnc2c1 [Compound 661, (S)-2-Methyl-5-(2-(methylamino)propoxy)-N-(1-(7-vinylquinolin-5-yl)cyclopropyl)benzamide]",< 0.1
12,"Cc1ccc(OC[C@@H]2CCN2)cc1C(=O)NC1(c2cc(-c3cnc(N4CCCCC4)nc3)cc3ncccc23)CC1 [Compound 688, (S)-5-(Azetidin-2-ylmethoxy)-2-methyl-N-(1-(7-(2-(piperidin-1-yl)pyrimidin-5-yl)quinolin-5-yl)cyclopropyl)benzamide]",< 0.1
13,"CC(C)c1ccccc1C(C)N1CCC(C(=O)NCc2cccc(F)c2)CC1 (stereo not drawn) [Compound 552, N-(3-Fluorobenzyl)-1-(1-(2-isopropylphenyl)ethyl)piperidine-4-carboxamide]",> 5
14,"Cc1ccc(OC[C@@H]2CCN2)cc1C(=O)NC1(c2cc(N3CCC3)cc3ncccc23)CC1 [Compound 722, (S)—N-(1-(7-(Azetidin-1-yl)quinolin-5-yl)cyclopropyl)-5-(azetidin-2-ylmethoxy)-2-methylbenzamide]",< 0.1
15,"Cc1ccc(OC[C@@H]2CCN2C)cc1C(=O)NC1(c2cc(-c3nc4ccccc4o3)cc3ncccc23)CC1 [Compound 718, (S)—N-(1-(7-(Benzo[d]oxazol-2-yl)quinolin-5-yl)cyclopropyl)-2-methyl-5-((1-methylazetidin-2-yl)methoxy)benzamide]",< 0.1

# Same assay, conditions: SARS-CoV-2 PLpro enzymatic fluorescence assay; read-out: PLpro IC50
row,SMILES,IC50 [µM]
1,"Cc1ccc(OCCN(C)C)cc1C(=O)NC1(c2ccccc2C(F)(F)F)CC1 [Compound 321, 5-(2-(Dimethylamino)ethoxy)-2-methyl-N-(1-(2-(trifluoromethyl)phenyl)cyclopropyl)benzamide]",0.1 to 1
2,"Cc1ccc(OCCN(C)C)cc1C(=O)NC1(c2cccc(-c3ccsc3)c2)CC1 [Compound 325, 5-(2-(Dimethylamino)ethoxy)-2-methyl-N-(1-(3-(thiophen-3-yl)phenyl)cyclopropyl)benzamide]",0.1 to 1
3,"Cc1ccc(OCC2CCN2C)cc1C(=O)N[C@@H](c1cccc2ccccc12)C(F)(F)F (stereo partly drawn) [Compound 386, 2-Methyl-5-((1-methylazetidin-2-yl)methoxy)-N-((S)-2,2,2-trifluoro-1-(naphthalen-1-yl)ethyl)benzamide]",< 0.1
4,"COc1cc(C2(NC(=O)c3cc(OC[C@@H]4C[C@@H](F)CN4C)ccc3C)CC2)c2ccccc2c1 [Compound 489, 5-(((2S,4R)-4-Fluoro-1-methylpyrrolidin-2-yl)methoxy)-N-(1-(3-methoxynaphthalen-1-yl)cyclopropyl)-2-methylbenzamide]",< 0.1
5,"Cc1ccc(OCC2CCN2C)cc1C(=O)NC1(c2cccc3nc(Cl)ccc23)CC1 (stereo not drawn) [Compound 436, N-(1-(2-Chloroquinolin-5-yl)cyclopropyl)-2-methyl-5-((1-methylazetidin-2-yl)methoxy)benzamide]",< 0.1
6,"Cc1cc2sc(CN)nc2cc1C(=O)NC1(c2cccc3ccccc23)CC1 [Compound 245, 2-(Aminomethyl)-6-methyl-N-(1-(naphthalen-1-yl)cyclopropyl)benzo[d]thiazole-5-carboxamide]",< 0.1
7,"COCCNCCOc1ccc(C)c(C(=O)NC2(c3cccc4ccccc34)CC2)c1 [Compound 358, 5-(2-((2-Methoxyethyl)amino)ethoxy)-2-methyl-N-(1-(naphthalen-1-yl)cyclopropyl)benzamide]",< 0.1
8,"Cc1cc2nc(CN)[nH]c2cc1C(=O)N[C@H](C)c1cccc(-c2ccc(CN[C@H]3CC[C@@H](O)C3)s2)c1 [Compound 151, 2-(Aminomethyl)-N-((R)-1-(3-(5-((((1S,3R)-3-hydroxycyclopentyl)amino)methyl)thiophen-2-yl)phenyl)ethyl)-5-methyl-1H-benzo[d]imidazole-6-carboxamide]",0.1 to 1
9,"COc1ccc2c(C3(NC(=O)c4cc(OC[C@@H]5CCN5C)ccc4C)CC3)cccc2n1 [Compound 544, (S)-N-(1-(2-Methoxyquinolin-5-yl)cyclopropyl)-2-methyl-5-((1-methylazetidin-2-yl)methoxy)benzamide]",< 0.1
10,"Cc1ccc(OCCN)cc1C(=O)NC1(c2cccc3ccccc23)CC1 [Compound 215, 5-(2-Aminoethoxy)-2-methyl-N-(1-(naphthalen-1-yl)cyclopropyl)benzamide]",< 0.1
11,"Cc1cc2c(cc1C(=O)NC1(c3cccc4ccccc34)CC1)N(C)CC2 [Compound 210, 1,5-Dimethyl-N-(1-(naphthalen-1-yl)cyclopropyl)indoline-6-carboxamide]",0.1 to 1
12,"Cc1cc2cc(CN(C)C)[nH]c2cc1C(=O)NC1(c2cccc3ccccc23)CC1 [Compound 173, 2-((Dimethylamino)methyl)-5-methyl-N-(1-(naphthalen-1-yl)cyclopropyl)-1H-indole-6-carboxamide]",0.1 to 1
13,"CCS(=O)(=O)c1cc(C2(NC(=O)c3cc(OCCN(C)C)ccc3C)CC2)c2ccccc2c1 [Compound 471, 5-(2-(Dimethylamino)ethoxy)-N-(1-(3-(ethylsulfonyl)naphthalen-1-yl)cyclopropyl)-2-methylbenzamide]",0.1 to 1
14,"Cc1cc2[nH]ccc2cc1C(=O)NC1(c2cccc3ccccc23)CC1 [Compound 223, 6-Methyl-N-(1-(naphthalen-1-yl)cyclopropyl)-1H-indole-5-carboxamide]",0.1 to 1
15,"Cc1ccc(OCC2CC(C)(C)N2Cc2ccccc2)cc1C(=O)NC1(c2cccc3ccccc23)CC1 (stereo not drawn) [Compound 492, 5-((1-Benzyl-4,4-dimethylazetidin-2-yl)methoxy)-2-methyl-N-(1-(naphthalen-1-yl)cyclopropyl)benzamide]",0.1 to 1
16,"COCC(NC(=O)c1cc(N)ccc1C)c1cccc2ccccc12 (stereo not drawn) [Compound 118, 5-Amino-N-(2-methoxy-1-(naphthalen-1-yl)ethyl)-2-methylbenzamide]",> 5
17,"Cc1ccc(OCCN(C)C)cc1C(=O)NC1(c2ccc(O)cc2)CC1 [Compound 294, 5-(2-(Dimethylamino)ethoxy)-N-(1-(4-hydroxyphenyl)cyclopropyl)-2-methylbenzamide]",> 5
18,"Cc1ccc(OC[C@@H]2CCN2C)cc1C(=O)NC1(c2cc(O)nc3cc(F)ccc23)CC1 [Compound 542, (S)-N-(1-(7-Fluoro-2-hydroxyquinolin-4-yl)cyclopropyl)-2-methyl-5-((1-methylazetidin-2-yl)methoxy)benzamide]",< 0.1
19,"Cc1cc2ccn(CCN)c2cc1C(=O)NC1(c2cccc3ccccc23)CC1 [Compound 203, 1-(2-Aminoethyl)-5-methyl-N-(1-(naphthalen-1-yl)cyclopropyl)-1H-indole-6-carboxamide]",0.1 to 1
20,"Cc1ccc(OCCNC(C)C)cc1C(=O)NC1(c2cccc3ccccc23)CC1 [Compound 362, 5-(2-(Isopropylamino)ethoxy)-2-methyl-N-(1-(naphthalen-1-yl)cyclopropyl)benzamide]",< 0.1
21,"CNCCOc1ccc(C)c(C(=O)NC2(c3cc(OC)cc4ccccc34)CC2)c1 [Compound 347, N-(1-(3-Methoxynaphthalen-1-yl)cyclopropyl)-2-methyl-5-(2-(methylamino)ethoxy)benzamide]",< 0.1
